According to US11723889B2, “Amyloid fiber formation limiter or inhibitor” (Omoidesouzou Co., Ltd., priority 2014, dated 2023):

Assays:
Format in all cases: in vivo, human
Alzheimer's disease = test: Oral tranilast in a patient with Alzheimer's disease (Case 5), testing methods for dementia HDS-R and MMSE
Experimental: (§1) 2. Confirmation that the agent for suppressing or inhibiting an amyloid fibril formation of the present invention has a therapeutic effect against cerebral amyloidosis. Because it was shown that tranilast has the effect of suppressing amyloid fibril formation in the skin, whether dementia and Alzheimer's disease arising from amyloid fibril deposition in the brain could be ameliorated was studied. A patient with Alzheimer's disease (person) was administered orally with a 100 mg capsule of tranilast (brand name: Rizaben, Kissei Pharmaceutical Co., Ltd.) three times a day. About 5 months after the start of administration of tranilast on Oct.

cutaneous amyloidosis = test: Oral tranilast treatment of patients with cutaneous amyloidosis / cutaneous lichen amyloidosis (Cases 1-3), clinical observation of skin symptoms
From the text: 1. Confirmation that the agent for suppressing or inhibiting an amyloid fibril formation of the present invention has a therapeutic effect against cutaneous amyloidosis.
patient one observed with symptoms of cutaneous amyloidosis specific pigment-associating invasion and itch in the upper back had been treated without tranilast for an initial duration of 4 years, however, no therapeutic effect was observed. Therefore, the treatment shifted to the use of tranilast. The above-mentioned patient was administered orally with a 100 mg capsule of tranilast (brand name: Rizaben, Kissei Pharmaceutical Co., Ltd.) three times a day. […] Worsening or relapse of rash was not observed at least 3 years afterwards.
Therefore, the treatment shifted to the use of tranilast. The above-mentioned patient was administered orally with a 100 mg capsule of tranilast (brand name: Rizaben, Kissei Pharmaceutical Co., Ltd.) three times a day. From day 16 (Jul. 16, 2014) (see FIG. 1B) after the start of oral administration on Jun. […] The degree of amelioration of rash increased day by day (see FIGS. 1C to 1E).
A patient observed with chronic eczema with rash along with strong itch in the upper back for several years started the treatment with tranilast. The patient was administered orally with a 100 mg capsule of tranilast (brand name: Rizaben, Kissei Pharmaceutical Co., Ltd.) three times a day. When the oral administration started on Jul. 29, 2014, amyloid deposited brown papule was densely lichenified (see FIG. 2A).

dementia = test: Oral tranilast in a patient with dementia (Case 4), testing methods for dementia HDS-R and MMSE
Experimental: as §1, with “dementia (patient two)” for “Alzheimer's disease (person)”, “day.” for “day. About 5 months after the start of administration of tranilast on Oct.”

[1] = Case 1, 100 mg capsule orally three times a day, within another 1 month (about 2 months after start)
[2] = 1 year and 4 months after start of administration (December 2013)

COc1ccc(/C=C/C(=O)Nc2ccccc2C(=O)O)cc1OC [tranilast, N-(3,4-dimethoxycinnamoyl)anthranilic acid]
effect on the symptoms of Alzheimer's type dementia by HDS-R and MMSE (Alzheimer's disease; 100 mg capsule orally three times a day, about 5 months after start): clear ameliorating effect
HDS-R Value (Alzheimer's disease; about 5 months after start (Mar. 19, 2015), value at start of administration 9): 12
MMSE Value (Alzheimer's disease; about 5 months after start (Mar. 19, 2015), value at start of administration 14): 22
pigmentation (cutaneous amyloidosis; Case 1, upper back, 100 mg capsule orally three times a day, about 1 month after start of oral administration): started to thin
itch (cutaneous amyloidosis; [1]): reduced
rash (cutaneous amyloidosis; [1]): largely ameliorated
worsening or relapse of rash (cutaneous amyloidosis; Case 1, at least 3 years afterwards): not observed
amyloid deposited brown papule (cutaneous amyloidosis; Case 2, 100 mg capsule orally three times a day, day 151 after start of oral administration): almost disappeared
amyloid deposited brown papule (cutaneous amyloidosis; Case 2, 100 mg capsule orally three times a day, from day 16 after start of oral administration): thinned, decreased in size, and ameliorated clearly
condition (papule almost disappeared) maintained until (cutaneous amyloidosis; Case 2, day after start of oral administration): ≥ 238 days
symptoms (densely lichenified amyloid deposited brown papule) (cutaneous amyloidosis; Case 3, upper back, 100 mg capsule orally three times a day, day 15 after start): improvement in the symptoms was observed
symptoms (densely lichenified amyloid deposited brown papule) (cutaneous amyloidosis; Case 3, 100 mg capsule orally three times a day, day 29 after start): clear improvement in the symptoms was observed
improved condition maintained until (cutaneous amyloidosis; Case 3, day after start of oral administration): ≥ 89 days
effect by two testing methods for dementia (HDS-R and MMSE) (dementia; 100 mg capsule orally three times a day, 1 year and 4 months after start): clear ameliorating effect
HDS-R Value (dementia; [2]): 20
MMSE Value (dementia; [2]): 25
HDS-R Value (dementia; 5 months after start of administration (January 2013), 23 at 1 year and 5 months before start): 15
MMSE Value (dementia; 5 months after start of administration (January 2013), 27 at 1 year and 5 months before, 28 at 3 years and 10 months before): 22
